Experimental data: patent US20260365670A1, “EGFR INHIBITORS AND USES THEREOF” (DIZAL (JIANGSU) PHARMACEUTICAL CO., LTD., priority 2022, published 2026)
Where two headings read alike, the source gives them in different places.

Columns and labels:
EGFR L858R = biological target: T1, EGFR L858R (Homo sapiens, UniProt P00533, L858R); test: Inhibition of EGFR L858R biochemical enzymatic activity (HTRF); details: 1 mM ATP, 1 h, room temperature, read-out: IC50 (nM) @L858R
T1 construct: purchased Carna Bio
Method in brief: (§1)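 1 mM ATP, 1 μM biotin-TK peptide, 5 mM MgCl2, 1 mM MnCl2, 0.01% CHAPS, 1 mM DTT, 0.5% DMSO; 1 h RT; EDTA stop; HTRF 665/615 nm; IC50 via 4PL.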

PC-9 = test: Cell proliferation assay, PC-9 cells (CellTiter-Glo, 72 hours); assay type: cell-based; details: PC9 cells, CellTiter-Glo, read-out: PC9 GI50
Method in brief: (§2)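 Cells are exposed to graded compound concentrations after overnight plating, using 500 PC-9 or 5000 Ba/F3 per well. Baseline-subtracted viability is compared with vehicle to give percent proliferation, then GI50.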

EGFR wild type = biological target: T2, EGFR wild type (Homo sapiens, UniProt P00533); test: Inhibition of EGFR wild type biochemical enzymatic activity (HTRF); details: EGFR WT, 1 mM ATP, 1 h, room temperature, read-out: IC50 (nM) @WT
T2 construct: purchased Carna Bio
Method in brief: as §1

EGFR Exon19Del = biological target: T3, EGFR Exon19Del (Homo sapiens, UniProt P00533, DEL746-750); test: Inhibition of EGFR Exon19Del biochemical enzymatic activity (HTRF); details: EGFR Del19, 1 mM ATP, 1 h, room temperature, read-out: IC50 @Del19
T3 construct: purchased Carna Bio
Method in brief: as §1

EGFR (d746-750 C797S) = biological target: T4, EGFR (d746-750 C797S) (Homo sapiens, UniProt P00533, C797S/DEL746-750); test: Inhibition of EGFR (d746-750 C797S) biochemical enzymatic activity (HTRF); details: EGFR Del19-C797S, 1 mM ATP, 1 h, room temperature, read-out: IC50 (nM) @Del19-C797S
T4 construct: purchased signalchem
Method in brief: as §1

EGFR[T790M/C797S/L858R] = biological target: T5, EGFR[T790M/C797S/L858R] (Homo sapiens, UniProt P00533, C797S/L858R/T790M); test: Inhibition of EGFR[T790M/C797S/L858R] biochemical enzymatic activity (HTRF); details: EGFR T790M-C797S-L858R, 1 mM ATP, 1 h, room temperature, read-out: IC50 (nM) @T790M- C797S - L858R
T5 construct: purchased Carna Bio
Method in brief: as §1

EGFR (C797S L858R) = biological target: T6, EGFR (C797S L858R) (Homo sapiens, UniProt P00533, C797S/L858R); test: Inhibition of EGFR (C797S L858R) biochemical enzymatic activity (HTRF); details: EGFR L858-C797S, 1 mM ATP, 1 h, room temperature, read-out: IC50 (nM) @L858-C797S
T6 construct: purchased signalchem
Method in brief: as §1

[1] = system: Ba/F3 cells expressing EGFR mutations; test: Cell proliferation assay, Ba/F3 cells expressing EGFR mutations (CellTiter-Glo, 72 hours); assay type: cell-based; details: CellTiter-Glo
Method in brief: as §2

EGFR L858R/T790M = biological target: T7, EGFR L858R/T790M (Homo sapiens, UniProt P00533, L858R/T790M); test: Inhibition of EGFR L858R/T790M biochemical enzymatic activity (HTRF); details: EGFR L858R-T790M, 1 mM ATP, 1 h, room temperature, read-out: IC50 (nM) @L858R-T790M
T7 construct: purchased Carna Bio
Method in brief: as §1

A-431 = test: Cell proliferation GI50, A-431 cells (Table 6); assay type: cell-based
EGFR Exon19Del/T790M = biological target: T8, EGFR Exon19Del/T790M (Homo sapiens, UniProt P00533, DEL746-750/T790M); test: Inhibition of EGFR Exon19Del/T790M biochemical enzymatic activity (HTRF); details: EGFR Del19-T790M, 1 mM ATP, 1 h, room temperature, read-out: IC50 (nM) @Del19-T790M
T8 construct: purchased Carna Bio
Method in brief: as §1

[2] = biological target: T9, EGFR[T790M/C797S/d746-750] (Homo sapiens, UniProt P00533, C797S/DEL746-750/T790M); test: Inhibition of EGFR[T790M/C797S/d746-750] biochemical enzymatic activity (HTRF); details: EGFR T790M-C797S-Del19, 1 mM ATP, 1 h, room temperature, read-out: IC50 (nM) @T790M - C797S - Del19
T9 construct: purchased Carna Bio
Method in brief: as §1

[3] = BaF3 cells, EGFR DEL19-C797S, read-out: DEL19-C797S/BaF3 GI50
[4] = BaF3 cells, EGFR DEL19-T790-C797S, read-out: DEL19-T790-C797S/BaF3 GI50
[5] = BaF3 cells, EGFR L858R, read-out: L858R/BaF3 GI50
[6] = BaF3 cells, EGFR L858R-C797S, read-out: L858R-C797S/BaF3 GI50
[7] = BaF3 cells, EGFR L858R-T790-C797S, read-out: L858R-T790-C797S/BaF3 GI50
[8] = BaF3 cells, EGFR L858R-T790M, read-out: L858R-T790M/BaF3 GI50
[9] = EGFR DEL19-T790M, read-out: DEL19-T790M GI50
[10] = Mus musculus, BaF3, 72 h, BaF3 cells, EGFR DEL19-C797S, read-out: DEL19-C797S/BaF3 GI50
[11] = Mus musculus, BaF3, 72 h, BaF3 cells, EGFR DEL19-T790-C797S, read-out: DEL19-T790-C797S/BaF3 GI50
[12] = Mus musculus, BaF3, 72 h, BaF3 cells, EGFR L858R, read-out: L858R/BaF3 GI50
[13] = Mus musculus, BaF3, 72 h, BaF3 cells, EGFR L858R-C797S, read-out: L858R-C797S/BaF3 GI50
[14] = Mus musculus, BaF3, 72 h, BaF3 cells, EGFR L858R-T790-C797S, read-out: L858R-T790-C797S/BaF3 GI50
[15] = Mus musculus, BaF3, 72 h, BaF3 cells, EGFR L858R-T790M, read-out: L858R-T790M/BaF3 GI50
[16] = Mus musculus, BaF3, 72 h, EGFR DEL19-T790M, read-out: DEL19-T790M GI50
[17] = Homo sapiens, A-431, A-431 cells

T6 sequence (P00533 25-1210 C797S/L858R): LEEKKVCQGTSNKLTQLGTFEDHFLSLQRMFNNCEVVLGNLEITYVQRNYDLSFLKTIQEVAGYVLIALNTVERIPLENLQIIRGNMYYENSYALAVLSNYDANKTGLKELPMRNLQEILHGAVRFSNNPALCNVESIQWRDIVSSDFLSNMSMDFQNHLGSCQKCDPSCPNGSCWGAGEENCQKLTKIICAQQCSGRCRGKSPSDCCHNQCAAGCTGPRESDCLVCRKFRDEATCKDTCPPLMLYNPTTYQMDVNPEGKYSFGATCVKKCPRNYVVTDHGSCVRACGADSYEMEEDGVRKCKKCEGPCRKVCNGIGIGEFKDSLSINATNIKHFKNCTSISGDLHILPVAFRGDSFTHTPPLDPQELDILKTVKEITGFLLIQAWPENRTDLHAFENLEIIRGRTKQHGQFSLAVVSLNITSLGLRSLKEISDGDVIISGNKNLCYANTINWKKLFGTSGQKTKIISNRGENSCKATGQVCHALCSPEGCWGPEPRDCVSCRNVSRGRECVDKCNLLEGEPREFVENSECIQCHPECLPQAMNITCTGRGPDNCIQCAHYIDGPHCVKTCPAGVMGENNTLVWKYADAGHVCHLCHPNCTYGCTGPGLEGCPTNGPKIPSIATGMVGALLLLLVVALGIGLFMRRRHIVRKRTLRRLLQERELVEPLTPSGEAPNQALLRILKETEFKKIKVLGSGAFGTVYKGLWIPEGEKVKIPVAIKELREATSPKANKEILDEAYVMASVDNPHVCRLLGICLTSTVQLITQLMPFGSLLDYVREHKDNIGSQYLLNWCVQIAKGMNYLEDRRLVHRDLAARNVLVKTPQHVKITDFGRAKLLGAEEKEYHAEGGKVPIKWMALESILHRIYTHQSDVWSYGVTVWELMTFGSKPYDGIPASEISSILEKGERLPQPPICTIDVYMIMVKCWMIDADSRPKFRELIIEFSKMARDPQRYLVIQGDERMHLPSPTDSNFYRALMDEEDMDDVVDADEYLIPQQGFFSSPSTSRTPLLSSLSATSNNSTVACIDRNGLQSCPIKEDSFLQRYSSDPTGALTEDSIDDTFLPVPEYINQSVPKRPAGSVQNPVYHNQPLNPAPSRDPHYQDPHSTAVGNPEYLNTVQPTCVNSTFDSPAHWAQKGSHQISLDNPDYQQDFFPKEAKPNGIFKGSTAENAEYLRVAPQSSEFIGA
T9 sequence (P00533 with tags, fused parts or gaps DEL746-750/T790M/C797S limits assumed): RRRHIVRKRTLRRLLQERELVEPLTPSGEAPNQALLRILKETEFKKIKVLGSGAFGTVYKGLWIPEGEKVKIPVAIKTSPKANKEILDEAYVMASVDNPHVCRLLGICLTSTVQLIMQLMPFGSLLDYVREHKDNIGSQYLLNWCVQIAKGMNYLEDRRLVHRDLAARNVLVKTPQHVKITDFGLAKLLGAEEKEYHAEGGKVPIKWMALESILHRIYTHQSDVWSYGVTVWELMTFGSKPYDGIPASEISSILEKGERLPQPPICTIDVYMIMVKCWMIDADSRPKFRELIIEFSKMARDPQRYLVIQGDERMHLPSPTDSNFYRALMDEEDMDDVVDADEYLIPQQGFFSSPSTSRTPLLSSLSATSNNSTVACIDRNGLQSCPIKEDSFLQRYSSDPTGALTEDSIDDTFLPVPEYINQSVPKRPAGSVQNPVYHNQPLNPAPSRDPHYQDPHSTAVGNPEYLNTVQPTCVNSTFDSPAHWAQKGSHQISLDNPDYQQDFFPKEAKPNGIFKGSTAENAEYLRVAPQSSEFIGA
T1 sequence (P00533 25-1210 L858R): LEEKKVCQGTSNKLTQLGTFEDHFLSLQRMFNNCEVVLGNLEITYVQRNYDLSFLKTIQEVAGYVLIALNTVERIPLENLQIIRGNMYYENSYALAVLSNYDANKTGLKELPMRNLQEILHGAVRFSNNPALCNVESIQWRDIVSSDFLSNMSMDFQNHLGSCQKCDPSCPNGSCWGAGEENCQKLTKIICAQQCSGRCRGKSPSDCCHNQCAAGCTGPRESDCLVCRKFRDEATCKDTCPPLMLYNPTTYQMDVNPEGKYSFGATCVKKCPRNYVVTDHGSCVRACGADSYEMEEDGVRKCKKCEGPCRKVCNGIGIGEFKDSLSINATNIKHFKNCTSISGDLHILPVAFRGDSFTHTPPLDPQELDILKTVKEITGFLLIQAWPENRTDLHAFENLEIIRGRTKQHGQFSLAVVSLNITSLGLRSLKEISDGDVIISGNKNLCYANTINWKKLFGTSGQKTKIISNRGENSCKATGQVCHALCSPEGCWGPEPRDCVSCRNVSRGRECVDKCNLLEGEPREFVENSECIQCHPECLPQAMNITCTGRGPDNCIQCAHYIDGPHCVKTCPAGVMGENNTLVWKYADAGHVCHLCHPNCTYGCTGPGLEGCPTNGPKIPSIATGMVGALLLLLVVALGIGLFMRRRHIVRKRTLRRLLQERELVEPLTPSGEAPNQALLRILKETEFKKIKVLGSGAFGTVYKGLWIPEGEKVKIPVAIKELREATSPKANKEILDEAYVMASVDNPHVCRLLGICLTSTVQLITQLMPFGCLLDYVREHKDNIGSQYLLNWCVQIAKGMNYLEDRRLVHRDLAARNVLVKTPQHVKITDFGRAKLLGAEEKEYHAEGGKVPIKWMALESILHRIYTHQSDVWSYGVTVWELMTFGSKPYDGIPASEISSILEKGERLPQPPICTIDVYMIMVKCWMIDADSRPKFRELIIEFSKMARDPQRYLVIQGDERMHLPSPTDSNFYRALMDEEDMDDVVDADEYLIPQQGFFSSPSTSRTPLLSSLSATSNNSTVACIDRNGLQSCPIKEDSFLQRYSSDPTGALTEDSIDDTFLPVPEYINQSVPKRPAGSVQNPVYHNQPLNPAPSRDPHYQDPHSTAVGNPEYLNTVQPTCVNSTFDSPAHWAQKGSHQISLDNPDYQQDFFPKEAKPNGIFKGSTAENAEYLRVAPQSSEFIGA
T3 sequence (P00533 with tags, fused parts or gaps DEL746-750 limits assumed): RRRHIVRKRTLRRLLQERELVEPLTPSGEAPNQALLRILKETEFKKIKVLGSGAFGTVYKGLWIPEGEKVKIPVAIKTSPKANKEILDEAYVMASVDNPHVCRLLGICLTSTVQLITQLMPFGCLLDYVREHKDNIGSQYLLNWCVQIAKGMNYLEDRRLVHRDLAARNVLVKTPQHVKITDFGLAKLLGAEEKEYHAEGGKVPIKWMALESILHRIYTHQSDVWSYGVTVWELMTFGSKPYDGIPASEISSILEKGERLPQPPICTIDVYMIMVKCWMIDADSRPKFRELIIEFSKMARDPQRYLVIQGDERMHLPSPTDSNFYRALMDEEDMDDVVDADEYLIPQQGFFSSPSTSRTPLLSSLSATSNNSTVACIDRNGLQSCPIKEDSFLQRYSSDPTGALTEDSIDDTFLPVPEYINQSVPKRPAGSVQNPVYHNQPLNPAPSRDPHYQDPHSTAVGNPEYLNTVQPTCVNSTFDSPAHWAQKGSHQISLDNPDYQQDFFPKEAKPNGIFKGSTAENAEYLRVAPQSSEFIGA
T2 sequence (P00533 25-1210): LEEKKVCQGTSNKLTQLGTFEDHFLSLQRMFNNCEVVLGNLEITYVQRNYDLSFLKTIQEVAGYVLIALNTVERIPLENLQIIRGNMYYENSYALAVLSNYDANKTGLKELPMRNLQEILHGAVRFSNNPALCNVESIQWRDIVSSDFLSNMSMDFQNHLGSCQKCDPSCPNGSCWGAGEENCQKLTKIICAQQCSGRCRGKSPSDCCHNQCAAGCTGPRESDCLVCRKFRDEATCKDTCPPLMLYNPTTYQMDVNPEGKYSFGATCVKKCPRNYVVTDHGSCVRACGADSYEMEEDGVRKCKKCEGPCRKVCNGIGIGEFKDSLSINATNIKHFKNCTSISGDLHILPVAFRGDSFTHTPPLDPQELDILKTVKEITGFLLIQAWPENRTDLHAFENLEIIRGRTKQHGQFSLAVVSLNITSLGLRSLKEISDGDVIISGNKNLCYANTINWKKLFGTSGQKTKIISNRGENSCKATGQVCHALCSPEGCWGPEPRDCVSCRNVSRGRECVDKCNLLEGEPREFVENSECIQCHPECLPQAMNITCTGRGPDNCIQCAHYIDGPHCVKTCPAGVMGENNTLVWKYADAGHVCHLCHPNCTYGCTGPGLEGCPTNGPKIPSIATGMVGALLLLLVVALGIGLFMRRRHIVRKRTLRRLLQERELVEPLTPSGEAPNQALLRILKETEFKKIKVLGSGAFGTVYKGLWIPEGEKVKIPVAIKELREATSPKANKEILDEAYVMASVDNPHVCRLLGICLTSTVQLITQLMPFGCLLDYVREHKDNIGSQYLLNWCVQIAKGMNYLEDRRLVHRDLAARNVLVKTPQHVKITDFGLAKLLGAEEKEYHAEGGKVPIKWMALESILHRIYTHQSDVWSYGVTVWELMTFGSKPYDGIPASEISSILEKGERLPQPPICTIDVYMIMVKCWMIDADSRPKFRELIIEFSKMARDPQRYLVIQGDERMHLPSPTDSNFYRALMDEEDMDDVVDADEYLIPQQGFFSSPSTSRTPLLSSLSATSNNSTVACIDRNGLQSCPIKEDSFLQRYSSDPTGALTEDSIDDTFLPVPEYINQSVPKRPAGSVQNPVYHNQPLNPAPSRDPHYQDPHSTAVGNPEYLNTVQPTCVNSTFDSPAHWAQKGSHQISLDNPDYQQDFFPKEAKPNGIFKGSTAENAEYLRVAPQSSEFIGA

Row | Compound | IC50 (EGFR L858R) | GI50 (PC-9) | IC50 (EGFR wild type) | IC50 (EGFR Exon19Del) | IC50 (EGFR (d746-750 C797S)) | IC50 (EGFR[T790M/C797S/L858R]) | IC50 (EGFR (C797S L858R)) | GI50 [1, 3] | IC50 (EGFR L858R/T790M) | IC50 (EGFR Exon19Del/T790M) | IC50 [2] | GI50 (PC-9; Homo sapiens, PC-9, 72 h) | GI50 [1, 10] | GI50 [1, 11] | GI50 [1, 12] | GI50 [1, 13] | GI50 [1, 14] | GI50 [1, 15] | GI50 [1, 16] | GI50 (A-431; [17]) | also measured
1 | CN1CCC2(C1)CN(c1ccc3nc4n(c3c1)C13CCC(CN(CCOc5c(cnn5C)-c5cc(cn(C)c5=O)C(=O)N4)C1)C3)C2 (single isomer, unassigned) [Example A78A] | 2040 nM | 249 nM | > 5000 nM | 508 nM | 494 nM | > 5000 nM | > 5000 nM | 102 nM | > 5000 nM | > 5000 nM | 3750 nM | – | – | – | – | – | – | – | – | – | GI50 [1, 4]: 269 nM; GI50 [1, 5]: 329 nM; GI50 [1, 6]: 157 nM; GI50 [1, 7]: 402 nM; GI50 [1, 8]: 380 nM; GI50 [1, 9]: 250 nM; GI50 (A-431; A-431 cells): 3050 nM
2 | C[C@@H]1CCCOc2c(cnn2C)-c2cc(cn(C)c2=O)C(=O)Nc2nc3ccc4c(c3n2C1)CCN(C)C4 [Example A103, (11R)-5,11,18,30-tetramethyl-7-oxa-4,5,13,18,24,26,30-heptaazahexacyclo[26.3.1.0^{2,6}.0^{13,25}.0^{14,23}.0^{15,20}]dotriaconta-1(32),2(6),3,14,20,22,24,28-octaene-27,31-dione] | 168 nM | – | > 5000 nM | 7.4 nM | 5.4 nM | 20 nM | 68 nM | – | 65 nM | 1.8 nM | 1.3 nM | 32 nM | 2.7 nM | 7 nM | 26 nM | 17 nM | 10 nM | 72 nM | 18 nM | 1680 nM | –
3 | Cn1ncc2c1OCCN1CC3CCC(CC3)(C1)n1c(nc3ccccc31)NC(=O)c1cc-2c(=O)n(C)c1 [Example A100, 15,21-Dimethyl-23-oxa-2,9,11,15,20,21,26-heptaazaheptacyclo[26.2.2.1^{1,26}.1^{13,17}.0^{2,10}.0^{3,8}.0^{18,22}]tetratriaconta-3,5,7,9,13,17(34),18(22),19-octaene-12,16-dione] | 2500 nM | – | > 5000 nM | 97 nM | 120 nM | 2950 nM | 1760 nM | – | 3520 nM | 25 nM | 26 nM | 144 nM | 27 nM | 56 nM | 142 nM | 160 nM | 129 nM | 535 nM | 78 nM | 6000 nM | –

The next compounds have a lower IC50 (EGFR L858R) than those just listed; values first:

Row | IC50 (EGFR L858R) | GI50 (PC-9) | IC50 (EGFR wild type) | IC50 (EGFR Exon19Del) | IC50 (EGFR (d746-750 C797S)) | IC50 (EGFR[T790M/C797S/L858R]) | IC50 (EGFR (C797S L858R)) | GI50 [1, 3] | IC50 (EGFR L858R/T790M) | IC50 (EGFR Exon19Del/T790M) | IC50 [2] | GI50 (PC-9; Homo sapiens, PC-9, 72 h) | GI50 [1, 10] | GI50 [1, 11] | GI50 [1, 12] | GI50 [1, 13] | GI50 [1, 14] | GI50 [1, 15] | GI50 [1, 16] | GI50 (A-431; [17]) | Compound | also measured
4 | 34 nM | – | 236 nM | 4.9 nM | 3 nM | 8.8 nM | 15 nM | – | 15 nM | 3.3 nM | 3.1 nM | 14 nM | 2 nM | 14 nM | 4.4 nM | 7 nM | 5.3 nM | 27 nM | 16 nM | 232 nM | C[C@@H]1CCCOc2c(cnn2C)-c2cc(cn(C)c2=O)C(=O)Nc2nc3ccc(N4CC5(CCCN5C)C4)cc3n2C1 [Example A44] | –
5 | 11 nM | 25 nM | 110 nM | 4 nM | 2.9 nM | 6.1 nM | 8 nM | 0.75 nM | 12 nM | 9.7 nM | 6.7 nM | – | – | – | – | – | – | – | – | – | CN1CCC2(CN(c3ccc4nc5n(c4c3)C34CCC(CN(CCOc6c(cnn6C)-c6cc(cn(C)c6=O)C(=O)N5)C3)C4)C2)C(F)(F)C1 (single isomer, unassigned) [Example A91B] | GI50 [1, 4]: 2.2 nM; GI50 [1, 5]: 2.6 nM; GI50 [1, 6]: 3.9 nM; GI50 [1, 7]: 4.6 nM; GI50 [1, 8]: 11 nM; GI50 [1, 9]: 3.1 nM; GI50 (A-431; A-431 cells): 1690 nM
6 | 10 nM | – | 74 nM | 2.3 nM | 1.7 nM | 3.2 nM | 5.3 nM | – | 5.1 nM | 3.5 nM | 3.1 nM | 2.9 nM | 0.33 nM | 1.1 nM | 0.47 nM | 1.4 nM | 0.57 nM | 2.9 nM | 1.4 nM | 314 nM | C[C@@H]1CCCOc2c(cnn2C)-c2cc(cn(C)c2=O)C(=O)Nc2nc3ccc(N4CC5(CCN(C)CC5)C4)cc3n2C1 [Example A41] | –
